From patent publication US20230183219A1, “CONDENSED SUBSTITUTED HYDROPYRROLES AS ANTAGONISTS OF THE MUSCARINIC ACETYLCHOLINE RECEPTOR M4” (Vanderbilt University, priority 2020, published 2023)

Experiments:
[1] = tested on: haloperidol-induced catalepsy; conditions: cited from earlier work
[2] = biological target: T1, Human M4 (Homo sapiens, UniProt P08173); experiment: mAChR M4 cell-based functional assay (calcium flux, decrease of EC80 acetylcholine response); conditions: for IC50: M4/Gqi5/CHO-K1 cells, decrease of response to EC80 acetylcholine; for remaining activity at 30 µM: read-out: Human M4 Emin
T1 construct: Human or rat M4 cDNA, along with the chimeric G protein Gqi5, were transfected into Chinese hamster ovary (CHO-K1) cells; expressed in transfected cells; host or cells: CHO-K1 (Chinese hamster ovary, ATCC), stably co-expressing Gqi5
T1 sequence (P08173 1-479): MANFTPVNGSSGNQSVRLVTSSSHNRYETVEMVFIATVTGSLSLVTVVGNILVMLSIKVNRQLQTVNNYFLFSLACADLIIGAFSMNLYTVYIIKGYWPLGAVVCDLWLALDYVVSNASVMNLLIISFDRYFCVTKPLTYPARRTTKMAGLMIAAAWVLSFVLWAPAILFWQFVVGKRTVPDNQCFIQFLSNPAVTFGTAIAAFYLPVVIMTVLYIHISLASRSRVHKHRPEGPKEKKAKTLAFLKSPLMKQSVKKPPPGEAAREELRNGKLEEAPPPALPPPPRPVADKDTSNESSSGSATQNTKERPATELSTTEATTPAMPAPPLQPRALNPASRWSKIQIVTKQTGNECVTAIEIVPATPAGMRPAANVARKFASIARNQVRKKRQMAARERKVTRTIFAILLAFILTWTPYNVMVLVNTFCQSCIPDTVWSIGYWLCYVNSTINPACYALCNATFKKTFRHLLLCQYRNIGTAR
Method in brief: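 CHO-K1 cells stably co-expressing M4 and chimeric Gqi5, loaded with Fluo-4 AM; calcium flux read on FDSS. Compound added at 2 s, EC20 acetylcholine at 143 s, EC80 acetylcholine at 268 s. IC50 from concentration-dependent decrease of the EC80 response, four-parameter logistic fit; 10-point 1:3 titrations.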

SMILES | IC50 [2] [µM] | remaining activity at 30 µM ([2]; % ACh maximum at 30 μM) [%] | reduction of catalepsy induced by haloperidol ([1]; M4KO mice) | reversal of catalepsy induced by haloperidol ([1]; WT mice) | Human M4 Emin ([2]; % ACh maximum at 30 μM) [%]
CN1[C@@H]2C[C@@H](OC(=O)[C@H](CO)c3ccccc3)C[C@H]1[C@@H]1O[C@@H]12 [scopolamine] |  |  | ineffective | completely reversed | 
C[C@H]1CCCN(c2cc(C(F)(F)F)c(N[C@H]3C[C@@H]4CN(CC5CCOCC5)C[C@@H]4C3)nn2)C1 [Example 6, (3aR,5s,6aS)—N-(6-((S)-3-methylpiperidin-1-yl)-4-(trifluoromethyl)pyridazin-3-yl)-2-((tetrahydro-2H-pyran-4-yl)methyl)octahydrocyclopenta[c]pyrrol-5-amine] | 1.22 |  |  |  | 4
Cn1ccc2cc(-c3cc(C(F)(F)F)c(N[C@H]4C[C@@H]5CN(CC6CCOCC6)C[C@@H]5C4)nn3)ccc21 [Example 87, (3aR,5s,6aS)-N-(6-(1-methyl-1H-indol-5-yl)-4-(trifluoromethyl)pyridazin-3-yl)-2-((tetrahydro-2H-pyran-4-yl)methyl)octahydro-cyclopenta[c]pyrrol-5-amine] | 0.0896 | 4 |  |  | 
CCc1ccc(F)c(-c2cc(C(F)(F)F)c(N[C@H]3C[C@@H]4CN(CC5CCOCC5)C[C@@H]4C3)nn2)c1 [Example 95, (3aR,5s,6aS)-N-(6-(5-ethyl-2-fluorophenyl)-4-(trifluoromethyl)pyridazin-3-yl)-2-((tetrahydro-2H-pyran-4-yl)methyl)octahydro-cyclopenta[c]pyrrol-5-amine] | 0.931 | 3 |  |  | 
N#Cc1cccc(-c2cc(C(F)(F)F)c(N[C@H]3C[C@@H]4CN(CC5CCOCC5)C[C@@H]4C3)nn2)c1F [Example 60, 2-fluoro-3-(6-(((3aR,5s,6aS)-2-((tetrahydro-2H-pyran-4-yl)methyl)octahydro-cyclopenta[c]pyrrol-5-yl)amino)-5-(trifluoro-methyl)pyridazin-3-yl)benzonitrile] | 0.232 | 4 |  |  | 
O=C1Cc2cc(-c3cc(C(F)(F)F)c(N[C@H]4C[C@@H]5CN(CC6CCOCC6)C[C@@H]5C4)nn3)ccc2N1 [Example 63, 5-(6-(((3aR,5s,6aS)-2-((tetrahydro-2H-pyran-4-yl)methyl)octahydro-cyclopenta[c]pyrrol-5-yl)amino)-5-(trifluoro-methyl)pyridazin-3-yl)indolin-2-one] | 0.0956 | 3 |  |  | 
Cc1cc(-c2cc(C(F)(F)F)c(N[C@H]3C[C@@H]4CN(CC5CCOCC5)C[C@@H]4C3)nn2)c(F)cc1F [Example 92, (3aR,5s,6aS)-N-(6-(2,4-difluoro-5-methylphenyl)-4-(trifluoromethyl)pyridazin-3-yl)-2-((tetrahydro-2H-pyran-4-yl)methyl)octahydro-cyclopenta[c]pyrrol-5-amine] | 0.338 | 2 |  |  | 

The next lines start with results.

IC50 [2] [µM] | remaining activity at 30 µM ([2]; % ACh maximum at 30 μM) [%] | SMILES | reduction of catalepsy induced by haloperidol ([1]; M4KO mice) | reversal of catalepsy induced by haloperidol ([1]; WT mice) | Human M4 Emin ([2]; % ACh maximum at 30 μM) [%]
0.0014 | 3 | N#Cc1cc(-c2cc(F)ccc2Cl)nnc1N[C@H]1C[C@@H]2CN(CC3CCOCC3)C[C@@H]2C1 [Example 145, 6-(2-chloro-5-fluorophenyl)-3-(((3aR,5s,6aS)-2-((tetrahydro-2H-pyran-4-yl)methyl)octahydro-cyclopenta[c]pyrrol-5-yl)amino)pyridazine-4-carbonitrile] |  |  | 
0.0467 | 3 | [2H]C([2H])(C1CCOCC1)N1C[C@H]2C[C@H](Nc3nnc(-c4ccc(F)cc4C)cc3C(F)(F)F)C[C@H]2C1 [Example 110, (3aR,5s,6aS)-N-(6-(4-fluoro-2-methylphenyl)-4-(trifluoromethyl)pyridazin-3-yl)-2-((tetrahydro-2H-pyran-4-yl)methyl-d2)octahydro-cyclopenta[c]pyrrol-5-amine] |  |  | 
0.0023 | 2 | [2H]C([2H])(C1CCOCC1)N1C[C@H]2C[C@H](Nc3cc(C(F)(F)F)c(-c4cc(F)ccc4Cl)nn3)C[C@H]2C1 [Example 129, (3aR,5s,6aS)-N-(6-(2-chloro-5-fluorophenyl)-5-(trifluoro-methyl)pyridazin-3-yl)-2-((tetrahydro-2H-pyran-4-yl)methyl-d2)octahydrocyclopenta[c]pyrrol-5-amine] |  |  | 
0.342 | 4 | [2H]C([2H])(C1CCOCC1)N1C[C@H]2C[C@H](Nc3nnc(-c4cc(F)c(F)cc4F)cc3C(F)(F)F)C[C@H]2C1 [Example 125, (3aR,5s,6aS)-2-((tetrahydro-2H-pyran-4-yl)methyl-d2)-N-(4-(trifluoromethyl)-6-(2,4,5-trifluorophenyl)pyridazin-3-yl)octahydro-cyclopenta[c]pyrrol-5-amine] |  |  | 
0.0008 | 5 | Cc1ccc(F)cc1-c1cc(C#N)c(N[C@H]2C[C@@H]3CN(C[C@@H]4CC5CCC4O5)C[C@@H]3C2)nn1 (stereo partly drawn) [Example 147, 3-(((3aR,5s,6aS)-2-(((2S)-7-oxabicyclo[2.2.1]heptan-2-yl)methyl)octahydro-cyclopenta[c]pyrrol-5-yl)amino)-6-(5-fluoro-2-methylphenyl)pyridazine-4-carbonitrile] |  |  | 
